Experimental findings from US11161830B2, “4-pyridone compound or salt thereof, and pharmaceutical composition and formulation including same” (priority 2017, dated 2021) are described below.

The subject of one test is HBV (genotype CAT). Description: Test Example 2-2: anti-HBV assay in PXB-cells (fresh human hepatocytes). The format is cell-based. Conditions: Hepatitis B virus, Hepatocyte. The protocol: Using fresh human hepatocytes (PXB-cells, manufactured by PhenixBio Co., Ltd.) collected from a PXB mouse (a chimeric mouse with human hepatocytes), the anti-HBV activity of the representative compounds was evaluated in the following procedure.
(§1) The following was used as a medium:
DMEM (manufactured by Sigma)+0.25 μg/mL insulin (manufactured by Wako)+1% penicillin/streptomycin. (manufactured by Sigma)+20 mmol/L HEPES (manufactured by Sigma)+15 μg/mL L-proline (manufactured by Sigma)+50 nmol/L dexamethasone (manufactured by Sigma)+5 ng/mL EGF (manufactured by Peprotech)+0.1 mmol/L ascorbic acid 2-phosphate (manufactured by Wako)+10% FBS+2% DMSO
Each of the test compounds) was further added to the medium to prepare a test solution containing each of the test compounds at various concentrations.
(1) PXB-cells seeded at a seeding density of 2.1×10^5 cells/cm^2 in a 96-well microliter plate were incubated in a 5% CO2 incubator at 37° C. until a day on which the cells were infected.
(2) A HBV (genotype CAT) prepared by transfecting an HBV plasmid into an HepG2 cell was suspended in the medium containing 4% PEG-8000, and added to the plate of (1) at about 30 copies/cell such that the PXB cells were infected (100 μL/well), and the plate was incubated in a 5% CO2 incubator at 37° C. for 1 day.
(3) The culture supernatant on day 1 post infection was removed and the cells were washed three times with DMEM containing 10% FBS and 1% penicillin/streptomycin. Then, the medium was added to the plate (100 μL/well) and the plate was incubated in a 5% CO2 incubator at 37° C. for 1 day.
(4) The culture supernatant on day 2 post infection was removed and the cells were washed three times with DMEM containing 10% FBS and 1% penicillin/streptomycin. Then, the medium was added to the plate (100 μL/well) and the plate was incubated in a 5% CO2 incubator at 37° C. for 5 days.
(5) The culture supernatant on day 7 post infection was removed, the medium was added to the plate (100 μL/well), and the plate was incubated in a 5% CO2 incubator at 37° C. for 5 days.
(6) The culture supernatant on day 12 post infection was removed, the medium was added to the plate (100 μL/well), and the plate was incubated in a 5% CO2 incubator at 37° C. for 5 days.
(7) The culture supernatant on day 17 post infection was removed, the test solution was added to the plate (100 μL/well), and the plate was incubated in a 5% CO2 incubator at 37° C. for 5 days. As a control without the compound added, the medium was added to the plate (100 μL/well) and the plate was incubated in a 5% CO2 incubator at 37° C. for 5 days.
(8) The culture supernatant on day 22 post infection was removed, the test solution was added to the plate (100 μL/well), and the plate was incubated in a 5% CO2 incubator at 37° C. for 5 days. As a control without the compound added, the medium was added to the plate (100 μL/well) and the plate was incubated in a 5% CO2 incubator at 37° C. for 5 days.
(9) The culture supernatant on day 27 post infection was removed, the test solution was added to the plate (100 μL/well), and the plate was incubated in a 5% CO2 incubator at 37° C. for 5 days. As a control without the compound added, the medium was added to the plate (100 μL/well) and the plate was incubated in a 5% CO2 incubator at 37° C. for 5 days.
(10) The culture supernatant on day 32 post infection was collected.
(11) The collected culture supernatant on day 32 post infection was treated with a mixture of Buffer AL (manufactured by QIAGEN) and Proteinase K (manufactured by Invitrogen). The amount of HBV-DNA in the obtained solution was absolutely quantified by a real-time PCR method. In addition, the amount of HBsAg in the culture supernatant was absolutely quantified by chemiluminescent enzyme immunoassay using Lumipulse (registered trademark) HBsAg-HQ (manufactured by Fujirebio Inc.). A relative viral load (%) with respect to a control without the compound added was each calculated. […]

A further test relates to HBV. Description: Test Example 1-2: anti-HBV assay in HepG2.2.15 cells (test solution 100 μL/well). The format is cell-based, hepatitis B virus. Conditions: culture supernatant. The protocol: Using HepG2.2.15 cells (Proc. Natl. Acad. Sci. USA, 84, 1005-1009, 1987) which have an HBV genome introduced into a hepatoblastoma cell line, HepG2, and persistently produce a virus, the anti-HBV activity of the representative compounds was evaluated in the following procedure.
as §1
DMEM/F-12, GlutaMAX (manufactured by Invitrogen)+5 μg/mL insulin (manufactured by Wako)+1% penicillin/streptomycin (manufactured by Sigma)+10 mmol/L HEPES (manufactured by Sigma)+50 μmol/L hydrocortisone (manufactured by Sigma)+10% FBS
A mixture of a test compound with dimethyl sulfoxide (DMSO) was further added to the medium to obtain a final concentration of DMSO of 0.25% (v/v), and thus, test solutions containing the test compound at various concentrations were prepared. In addition, a test solution obtained by adding DMSO alone to the medium to obtain a final concentration of 0.25% (v/v) was prepared as a control without addition of a drug.
(1) The HepG2.2.15 cells were suspended in the medium to prepare a. HepG2.2.15 cell suspension at 4×10^5 cells/mL. The suspension was seeded in a 96-well microtiter plate (100 μL/well) and the plate was incubated in a 5% CO2 incubator at 37° C. for 2 days.
(2) The culture supernatant was removed and the cells were washed twice with PBS (−) (100 μL/well).
(3) The test solution (200 μL/well) was added to the plate of (2) and the plate was incubated in a 5% CO2 incubator at 37° C. for 4 days.
(4) The culture supernatant was removed, the test solution (200 μL/well) was added again to the plate, and the plate was incubated in a 5% CO2 incubator at 37° C. for 3 days.
(5) The culture supernatant was collected and treated with a mixture of Buffer AL (manufactured by QIAGEN) and Proteinase K (manufactured by Invitrogen). The amount of DNA of HBV (HBV-DNA) in the obtained solution was absolutely quantified by a real-time PCR method. In addition, HBsAg (hepatitis B surface antigen) in the culture supernatant was absolutely quantified by chemiluminescent enzyme immunoassay using Lumipulse (registered trademark) HBsAg-HQ (manufactured by Fujirebio Inc.). The relative viral load (%) of a well with the compound added to a well without the compound added was calculated. An IC50 of the compound was calculated using a FORECAST function (linear regression method) of Microsoft Office Excel 2007 by plotting the logarithm of the concentration against the relative viral load as a real number.
The IC50 of HBV-DNA was defined as a concentration (or a logarithm dilution of the culture supernatant) of the compound, in which the amount of HBV-DNA is reduced by 50% as compared a control without the compound added.
In addition, the IC50 of HBsAg was defined as a concentration (or a logarithm dilution of the culture supernatant) of the compound, in which the amount of HBsAg is reduced by 50% as compared a control without the compound added.
The test was performed by the same method as in Test Example 1-1 except that the amounts of the test solutions of (3) and (4) of Test Example 1-1 was changed to 100 μL/well.

[1] abbreviates: read-out: IC50 HBV-DNA, PXB-cells infected with HBV genotype CAT, culture supernatant on day 32 post infection.
Setting [2] is: read-out: IC50 HBsAg, PXB-cells infected with HBV genotype CAT, culture supernatant on day 32 post infection.
Setting [3] is: Hepatitis B virus, read-out: IC50 HBV-DNA.
The mark [4] stands for this setting: Hepatitis B virus, read-out: IC50 HBsAg.

Read-outs that look alike come from different tables or passages of the source. Bounds are passed on as bounds.

`CO[C@H]1CCN(c2nc3ccc(-n4cc(C(=O)O)c(=O)cc4-c4ccc(N5CCCC5)cc4)cc3s2)C1` [Example 17-3, (S)-1-(2-(3-methoxypyrrolidin-1-yl)benzo[d]thiazol-6-yl)-4-oxo-6-(4-(pyrrolidin-1-yl)phenyl)-1,4-dihydropyridine-3-carboxylic acid]: the IC50 in the test on HBV (genotype CAT) (setting [1]) and in the test with HBV (genotype CAT) (setting [2]) was less than 500 nM throughout.

With `CN(C)[C@H]1CCN(c2nc3ccc(-n4cc(C(=O)O)c(=O)cc4-c4ccc(N5CCCC5)cc4)cc3s2)C1` [Example 17-1, (S)-1-(2-(3-(dimethylamino)pyrrolidin-1-yl)benzo[d]thiazol-6-yl)-4-oxo-6-(4-(pyrrolidin-1-yl)phenyl)-1,4-dihydropyridine-3-carboxylic acid], the IC50 in the test on HBV (genotype CAT) (setting [1]) and in the test with HBV (genotype CAT) (setting [2]) was less than 500 nM each time.

Regarding `COCCO[C@@H]1CCN(c2ccc(-c3cc(=O)c(C(=O)O)cn3-c3ccc4nc(N5CCOCC5)sc4c3)cc2)C1` [Example 19-1, (R)-6-(4-(3-(2-methoxyethoxy)pyrrolidin-1-yl)phenyl)-1-(2-morpholinobenzo[d]thiazol-6-yl)-4-oxo-1,4-dihydropyridine-3-carboxylic acid], the IC50 in the test on HBV (genotype CAT) (setting [1]) and with HBV (genotype CAT) (setting [2]) was less than 500 nM throughout.

Consider `COCCOC1CN(c2nc3ccc(-n4cc(C(=O)O)c(=O)cc4-c4ccc(N5CC[C@@H](OC)C5)c(F)c4)cc3s2)C1` [Example 23-9], for which the IC50 in the test on HBV (read-out: IC50 HBV-DNA) amounted to 0.68 nM; in the test on HBV (read-out: IC50 HBsAg), 1.8 nM.

As to `CO[C@@H]1CCN(c2ccc(-c3cc(=O)c(C(=O)O)cn3-c3ccc4nc(N5CC(OCC6CCCO6)C5)sc4c3)cc2F)C1` (stereo partly drawn) [Example 23-3, 6-(3-fluoro-4-((R)-3-methoxypyrrolidin-1-yl)phenyl)-4-oxo-1-(2-(3-((tetrahydrofuran-2-yl)methoxy)azetidin-1-yl)benzo[d]thiazol-6-yl)-1,4-dihydropyridine-3-carboxylic acid], the results for the concentration for half-maximal inhibition (IC50) in the test on HBV (setting [3]) and with HBV (setting [4]) were 0.61 nM and 1.7 nM, respectively.

`CO[C@@H]1CCN(c2ccc(-c3cc(=O)c(C(=O)O)cn3-c3ccc4nc(N5CCOCC5)sc4c3)cc2F)C1` [Example 20-1, (R)-6-(3-fluoro-4-(3-methoxypyrrolidin-1-yl)phenyl)-1-(2-morpholinobenzo[d]thiazol-6-yl)-4-oxo-1,4-dihydropyridine-3-carboxylic acid]: the IC50 with HBV (genotype CAT) (setting [1]) and in the test on HBV (genotype CAT) (setting [2]) was less than 500 nM in each case.

Take `COCCO[C@@H]1CCN(c2ccc(-c3cc(=O)c(C(=O)O)cn3-c3ccc4nc(N5CC[C@H](OC)C5)sc4c3)cc2)C1` [Example 21, 6-(4-((R)-3-(2-Methoxyethoxy)pyrrolidin-1-yl)phenyl)-1-(2-((S)-3-methoxypyrrolidin-1-yl)benzo[d]thiazol-6-yl)-4-oxo-1,4-dihydropyridine-3-carboxylic acid]: the IC50 was 8.3 nM with HBV (setting [3]) and 17 nM in the test on HBV (setting [4]).

For the compound `CO[C@@H]1CCN(c2ccc(-c3cc(=O)c(C(=O)O)cn3-c3ccc4nc(N5CC[C@H](N6CCOCC6)C5)sc4c3)cc2F)C1` [Example 23-1, 6-(3-fluoro-4-((R)-3-methoxypyrrolidin-1-yl)phenyl)-1-(2-((S)-3-morpholinopyrrolidin-1-yl)benzo[d]thiazol-6-yl)-4-oxo-1,4-dihydropyridine-3-carboxylic acid], the IC50 in the test with HBV (setting [3]) amounted to 1.7 nM; with HBV (setting [4]), 4.3 nM.

Turning to `CN(C)[C@@H]1CCN(c2nc3ccc(-n4cc(C(=O)O)c(=O)cc4-c4ccc(N5CCCC5)cc4)cc3s2)C1` [Example 17-2, (R)-1-(2-(3-(dimethylamino)pyrrolidin-1-yl)benzo[d]thiazol-6-yl)-4-oxo-6-(4-(pyrrolidin-1-yl)phenyl)-1,4-dihydropyridine-3-carboxylic acid], the IC50 in the test with HBV (genotype CAT) (setting [1]) and in the test on HBV (genotype CAT) (setting [2]) was less than 500 nM each time.

As for `CO[C@@H]1CCN(c2ccc(-c3cc(=O)c(C(=O)O)cn3-c3ccc4nc(N5CC(OC(C)C)C5)sc4c3)cc2F)C1` [Example 23-7, (R)-6-(3-fluoro-4-(3-methoxypyrrolidin-1-yl)phenyl)-1-(2-(3-isopropoxyazetidin-1-yl)benzo[d]thiazol-6-yl)-4-oxo-1,4-dihydropyridine-3-carboxylic acid], the values for the IC50 in the test on HBV (setting [3]) and with HBV (setting [4]) were 0.65 nM and 1.1 nM, respectively.

Take `COCCO[C@H]1CCN(c2ccc(-c3cc(=O)c(C(=O)O)cn3-c3ccc4nc(N5CCOCC5)sc4c3)cc2)C1` [Example 22-1, (S)-6-(4-(3-(2-methoxyethoxy)pyrrolidin-1-yl)phenyl)-1-(2-morpholinobenzo[d]thiazol-6-yl)-4-oxo-1,4-dihydropyridine-3-carboxylic acid]: the values for the IC50 with HBV (setting [3]) and with HBV (setting [4]) were 44 nM and 89 nM, respectively.

As for `COC1CN(c2nc3ccc(-n4cc(C(=O)O)c(=O)cc4-c4ccc5c(c4)OC[C@@H]4CCCN54)cc3s2)C1` [Example 18-2, (S)-1-(2-(3-methoxyazetidin-1-yl)benzo[d]thiazol-6-yl)-4-oxo-6-(2,3,3a,4-tetrahydro-1H-benzo[b]pyrrolo[1,2-d][1,4]oxazin-7-yl)-1,4-dihydropyridine-3-carboxylic acid], the IC50 with HBV (genotype CAT) (setting [1]) and with HBV (genotype CAT) (setting [2]) was less than 500 nM in each case.
